Settings: Transpiration method

CCC1COC(=O)O1 (stereo unspecified) [1,2-butylene carbonate]
Liquid
Settings | vapor or sublimation pressure [kPa]
288.6 K | 0.00186
293.5 K | 0.00284
298.5 K | 0.00453
303.4 K | 0.00649
307.3 K | 0.0087
310.3 K | 0.01164
313.3 K | 0.01439
316.3 K | 0.01837
319.3 K | 0.02281
322.5 K | 0.02805
327.4 K | 0.04092
330.3 K | 0.04839
333.6 K | 0.06415
338.7 K | 0.086
343.8 K | 0.1159

CC1COC(=O)O1 (stereo unspecified) [4-methyl-1,3-dioxolan-2-one]
Liquid
Settings | vapor or sublimation pressure [kPa]
298.4 K | 0.0085
303.3 K | 0.01247
308.2 K | 0.0181
311.3 K | 0.0223
313.2 K | 0.02529
318.2 K | 0.03723
321.2 K | 0.04503
322.7 K | 0.05193
324.2 K | 0.05893
326.6 K | 0.06788
329.6 K | 0.08307
332.7 K | 0.1019
335.7 K | 0.1281
337.7 K | 0.1375
338.8 K | 0.1525
340.8 K | 0.1721
341.8 K | 0.1787
344.9 K | 0.2178

O=C1OCCO1 [ethylene carbonate]
Settings | vapor or sublimation pressure [kPa]
280.6 K, Crystal | 0.00062
286.2 K, Crystal | 0.00119
291.3 K, Crystal | 0.002
295.5 K, Crystal | 0.00325
299.4 K, Crystal | 0.00472
303.2 K, Crystal | 0.00675
304.4 K, Crystal | 0.00785
306.4 K, Crystal | 0.00907
308.4 K, Crystal | 0.01077
310.3 K, Liquid | 0.012
314.4 K, Liquid | 0.01615
314.5 K, Liquid | 0.01614
317.3 K, Liquid | 0.02
320.3 K, Liquid | 0.02499
320.4 K, Liquid | 0.02475
323.5 K, Liquid | 0.0305
324.4 K, Liquid | 0.03281
327.4 K, Liquid | 0.03939
328.6 K, Liquid | 0.04312
331.3 K, Liquid | 0.05119
333.6 K, Liquid | 0.05962
335.4 K, Liquid | 0.06848
338.7 K, Liquid | 0.08312
341.4 K, Liquid | 0.0978
342.3 K, Liquid | 0.1031
343.8 K, Liquid | 0.1094
345.2 K, Liquid | 0.1213
347.6 K, Liquid | 0.1379
349 K, Liquid | 0.154
352.4 K, Liquid | 0.1869
354 K, Liquid | 0.2037
357.5 K, Liquid | 0.2473
358.9 K, Liquid | 0.2642
360.6 K, Liquid | 0.292
363.2 K, Liquid | 0.3283
364.1 K, Liquid | 0.3486
366.7 K, Liquid | 0.4047
369.5 K, Liquid | 0.4694

O=C1OCC(CO)O1 (stereo unspecified) [glycerine carbonate]
Liquid
Settings | vapor or sublimation pressure [kPa]
330.2 K | 0.00029
333.2 K | 0.00039
338.3 K | 0.00062
343.2 K | 0.00091
348.4 K | 0.00144
351.2 K | 0.00173
355.5 K | 0.0025
359.8 K | 0.00368
360.6 K | 0.00362
363.7 K | 0.00433
366.4 K | 0.00542
369.4 K | 0.00681
371.8 K | 0.00782
373.2 K | 0.00886
377.2 K | 0.01171
384.5 K | 0.02019
387.3 K | 0.02392
388 K | 0.02471
392.7 K | 0.03339
398.5 K | 0.04694

Reference: the NIST ThermoML archive (doi:10.1016/j.fluid.2008.03.013)
